Measurements published in ChEMBL document CHEMBL1201862, “PubChem BioAssay data set” (2004).
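Growth conditions: 96-well plates. Treatment: test compound, 48 hours, 5 concentrations. Analysis: linear interpolation between bracketing concentrations; unreached endpoints set to highest concentration. The concentration for 50% growth inhibition is given as GI50.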 Calls of active or inactive are those of the source. Rule as the data show it: active = GI50 up to about 1.1 µM and inactive = higher.

Legend:
Assay in all cases: NCI anticancer screen, dose series, 48 h
BT-549 = test system: BT-549
CAKI-1 = test system: CAKI-1
COLO 205 = test system: COLO 205
HCC 2998 = test system: HCC 2998
HCT-116 = test system: HCT-116
HCT-15 = test system: HCT-15
HOP-18 = test system: HOP-18
HOP-62 = test system: HOP-62
LOX IMVI = test system: LOX IMVI
M14 = test system: M14
MOLT-4 = test system: MOLT-4
Malme-3M = test system: Malme-3M
PC-3 = test system: PC-3
RPMI-8226 = test system: RPMI-8226
SNB-75 = test system: SNB-75
SR = test system: SR
T47D = test system: T47D
U-251 = test system: U-251
UACC-257 = test system: UACC-257
UO-31 = test system: UO-31

CNC1C(O)CC(OC2C/C=C(\C)C/C(C)=C/C=C/CCC(C)CNC(=O)/C=C/C=C/C2C)OC1C (stereo not given)
GI50 (BT-549): 1.25 µM (inactive)
GI50 (CAKI-1): 877 nM (active)
GI50 (COLO 205): 202 nM (active)
GI50 (HCC 2998): 286 nM (active)
GI50 (HCT-116): 278 nM (active)
GI50 (HCT-15): 202 nM
GI50 (HOP-18): 1.77 µM (inactive)
GI50 (HOP-62): 1.03 µM (active)
GI50 (LOX IMVI): 103 nM (active)
GI50 (M14): 240 nM (active)
GI50 (MOLT-4): 161 nM (active)
GI50 (Malme-3M): 1.47 µM (inactive)
GI50 (PC-3): 1.06 µM (active)
GI50 (RPMI-8226): 220 nM (active)
GI50 (SNB-75): 711 nM (active)
GI50 (SR): 240 nM (active)
GI50 (T47D): 783 nM (active)
GI50 (U-251): 521 nM (active)
GI50 (UACC-257): 667 nM (active)
GI50 (UO-31): 2.85 µM (inactive)
